Experiments:
macrophages [1] = experiment: Toxicity of drugamers to macrophages (Examples 5 and 6); assay type: cell-based; details: 50 or 500 ng/mL drugamer; data not shown
Description: Methods: CD14+ monocytes were isolated from PBMCs and differentiated to macrophages in RPMI/10% FBS with 10 ng/mL GM-CSF. After 6 days in culture, cells were replated into a 12 well dish, with 250K cells/well. The following day, they were mock transduced or transduced with vector control (EGFRt) or membrane-bound anti-FITC:EGFRt. Media was changed every 3 days. Seven days after transduction, all cells were washed twice with PBS and treated with either 50 or 500 ng/mL drugamer, which contained FITC and CMP8, in PBS. After a 15 min incubation at 37° C., cells were washed twice with PBS and one group of cells (“15 min”) was non-enzymatically detached with VERSENE™ and immediately fixed for flow with 2% paraformaldehyde. After the PBS wash, the other group of cells was allowed to recover in RP10 for 72 hours before detaching/fixing
Methods: CD14+ monocytes were isolated from PBMCs and differentiated to macrophages in RPMI/10% FBS with 10 ng/mL GM-CSF. After 6 days in culture, cells were replated into a 12 well dish, with 250K cells/well. The following day, they were mock transduced or transduced with vector control (EGFRt) or membrane-bound anti-FITC:EGFRt. Media was changed every 3 days. […] Rhodamine fluorescence was measured, indicating the presence of drugamer following 10 days in culture (data not shown).

M1 polarized macrophages = experiment: Free PI103 testing, 30plex cytokines, M1 macrophages (Example 8); assay type: cell-based, human; details: 500 nM PI103 for 1 hour, then LPS/IFNg, 24 hours
Description: (§1) Methods: CD14+ monocytes were isolated from PBMCs and differentiated to macrophages in RPMI/10% FBS with 10 ng/mL GM-CSF or 25 ng/ml M-CSF for 6 days. Macrophages were incubated with 500 nM PI103 for 1 hour, then stimulated with 1 ug LPS/100U/ml IFNg to determine impact on viability using flow cytometry of cells and pro-inflammatory responsiveness using a 30plex for human cytokines on cell supernatant 24 hours after stimulation. The expression of MIP1B, MCP1, IL15, EGF, HGF, VEGF, IFNg, IFNa, IL1RA, TNFa, IL7, IP10, IL2R, MIG, IL4, and IL8 was determined for each of the following groups: M1 control, M1 PI103, M1 LPS/IFNg, M1 PI103 LPS/IFNg, M2 control, M2 PI103, M2 LPS/IFNg, and M2 PI103 LPS/IFNg (data not shown). A summary of the significant data when using t-test to compare between treatment groups with and without Pi103 is shown for M1 macrophages in FIG. 22A and M2 macrophages in FIG. 22B.

M2 polarized macrophages = experiment: Free PI103 testing, 30plex cytokines, M2 macrophages (Example 8); assay type: cell-based, human; details: 500 nM PI103 for 1 hour, then LPS/IFNg, 24 hours
Description: as §1

[2] = system: MCSF polarized M2 macrophages; experiment: Free PI103 testing, flow cytometry of surface markers (Example 8); assay type: cell-based, human; details: 500 nM PI103
Description: as §1, with “22B. Flow cytometry staining included Live/Dead, HLA-DR, CD11b and CD14 to confirm expression of macrophage surface markers and viability (data not shown), as well as CD206 (anti-inflammatory macrophage marker; data not shown), CD163 (anti-inflammatory macrophage marker; data not shown), CD80 and CD86 (costimulatory molecules; data not shown).” for “22B.”

macrophages [3] = experiment: Free resiquimod and galunisertib testing, cytokines and phenotype (Example 9); assay type: cell-based, human; details: Galunisertib 56 nM for 1 hour, on its own
Description: (§2) Methods: CD14+ monocytes were isolated from PBMCs and differentiated to macrophages in RPMI/10% FBS with 10 ng/mL GM-CSF or 25 ng/ml M-CSF for 6 days. Macrophages were incubated with Resiquimod (1 ug/ml) and/or Galunisertib (56 nM) for 1 hour, then stimulated with 1 ug LPS/100U/ml IFNg to determine impact on viability using flow cytometry of cells and pro-inflammatory responsiveness using a 30plex for human cytokines on cell supernatant 24 hours after stimulation. Expression of bFGF, IL-1B, GCSF, IL10, 1L^13, IL6, IL12, Rantes, MIP1a, GMCSF, MIP1B, MCP1, IL15, EGF, IL5, HGF, VEGF, IFNg, IFNa, IL1RA, TNFa, IL7, IP10, IL2R, MIG, and IL8 was measured in the following treatment groups: M1 control, M1 resiquimod, M1 galunisertib, M1 resiquimod+galunisertib, M1 LPS/IFNg+resiquimod, M1 LPS/IFNg+galunisertib, M1 LPS/IFNg+resiquimod, +galunisertib, M2 control, M2 resiquimod, M2 galunisertib, M2 resiquimod+galunisertib, M2 LPS/IFNg+resiquimod, M2 LPS/IFNg+galunisertib, and M LPS/IFNg+resiquimod, +galunisertib (data not shown). […]

primary macrophages = experiment: Free resiquimod and galunisertib testing, toxicity (Example 9); assay type: cell-based, human; details: Resiquimod 1 ug/ml and/or Galunisertib 56 nM, alone or in combination
Description: as §2

[4] = system: CCR expressing CAR T cells; experiment: Exhaustion marker expression on CAR T cells cultured with macrophage derived IL-7 (Example 10); assay type: cell-based; details: in contrast to culture with recombinant IL-7, FIG. 23C
Description: Methods: CD14+ monocytes were isolated from PBMCs and differentiated to macrophages in RPMI/10% FBS with 10 ng/mL GM-CSF. After 6 days in culture, cells were replated into a 12 well dish, with 250K cells/well. The following day, they were mock transduced or transduced with vector control (EGFRt) or a vector encoding constitutive IL-7 under the control of the EF1a promoter. Autologous T cells were transduced with a chimeric cytokine receptor shown on FIG. 23A, and an anti-EGFRvIII specific CAR. T cells were magnetically separated based on CD4 and CD8 expression and expanded in vitro using Miltenyi CD3/CD28 beads and frozen. CFSE Cell Trace labeled CD4 or CD8 T cells were used in proliferation assays in response to IL-7 transduced macrophages.

O=C1CCC2(Cc3ccc(Cl)cc3)Cc3cc(O)ccc3C2=C1c1ccc(OCCN2CCCCC2)cc1 (stereo not shown) [CMP8, 9a-(4-Chlorobenzyl)-7-hydroxy-4-[4-(2-piperidin-1-ylethoxy)phenyl]-1,2,9,9a-tetrahydro-3H-fluoren-3-one]
toxicity to macrophages (macrophages [1]): toxicity is linked to CMP8

Oc1cccc(-c2nc(N3CCOCC3)c3oc4ncccc4c3n2)c1 [PI103]
pro-inflammatory cytokine production (M1 polarized macrophages): decrease
pro-inflammatory TNFalpha production (M2 polarized macrophages): increase
antigen presentation surface proteins CD80 and CD86 [2]: increase
surface markers consistent with an anti-inflammatory phenotype [2]: decrease

Cc1cccc(-c2nn3c(c2-c2ccnc4ccc(C(N)=O)cc24)CCC3)n1 [Galunisertib]
phenotypic or functional response to stimulation (macrophages [3]): little impact on phenotypic or functional response to stimulation
toxicity to primary macrophages (primary macrophages): neither molecule alone or in combination is toxic to primary macrophages

CCOCc1nc2c(N)nc3ccccc3c2n1CC(C)(C)O [resiquimod]
toxicity to primary macrophages (primary macrophages): neither molecule alone or in combination is toxic to primary macrophages

B1: macrophage derived IL-7: IL-7 produced by macrophages transduced with a vector encoding constitutive IL-7 (protein, UniProt P13232 26-177, looked up)
Interleukin-7: DCDIEGKDGKQYESVLMVSIDQLLDSMKEIGSNCLNNEFNFFKRHICDANKEGMFLFRAARKLRQFLKMNSTGDFDLHLLKVSEGTTILLNCTGQVKGRKPAALGEAQPTKSLEENKSLKEQKKLNDLCFLKRLLQEIKTCWNKILMGTKEH
expression of exhaustion markers TIM3, PD-1, and CD95 [4]: reduced
expression of exhaustion markers TIM3, PD-1, and CD95 ([4]; listed as GEM derived IL-7): reduces exhaustion marker expression

— US20200405881A1, “CELL BASED METHODS AND COMPOSITIONS FOR THERAPEUTIC AGENT DELIVERY AND TREATMENTS USING SAME” (UNIVERSITY OF WASHINGTON, priority 2017, published 2020)
